Measured values reported in US20240317731A1, “AMINOTHIAZOLE COMPOUNDS AS C-KIT INHIBITORS” (Theseus Pharmaceuticals, Inc., priority 2021, published 2024).

Experiments:
BAF3 KIT EX11 DEL/V654A = BAF3 KIT EX11 DEL/V654A (Homo sapiens, UniProt P10721, V654A, cells depend on it, form not given); experiment: Ba/F3 KIT mutant viability assay (Cell Titer-Glo), EX11 DEL/V654A; format: cell-based; conditions: 72 hours
Protocol: (§1) KIT cDNAs were synthesized by GenScript and cloned into the pLVX-IRES-Puro vector (Clontech). Viral particles were produced by transfecting pLVX-IRES-puro vectors containing KIT mutant genes into HEK293 cells (Invitrogen) using the Trans-Lentiviral ORF Packaging Kit (Thermo Scientific). 48 hours post-transfection, virus-containing supernatants were harvested and incubated for another 48-72 hours with parental Ba/F3 cells (DSMZ) in the presence of 10 ng/ml IL-3 (R&D Systems). Transduced Ba/F3 cells were then selected by IL-3 withdrawal and puromycin (0.5-1 μg/mL, Invitrogen).
(§2) Cell lines (e.g., EX11DEL, EX11KEL/D816H, EX11DEL/T670I, and EX11DEL/V654A) were plated into 384 well plates using RPMI 1640 supplemented with 10% FBS at densities that produced linear growth and incubated at 37° C. in 5%(v/v) CO2. Cells were treated with eight concentrations of compound over a 4-fold dilution (10 uM to 0.61 nM) and viability was assessed using Cell Titer-Glo assay (Promega) after 72 hours. Data were plotted as percent viability relative to vehicle-treated cells. Dose-responses curves were generated and used to calculate IC50 values.

BAF3 KIT EX11 DEL/T670I = BAF3 KIT EX11 DEL/T670I (Homo sapiens, UniProt P10721, T670I, cells depend on it, form not given); experiment: Ba/F3 KIT mutant viability assay (Cell Titer-Glo), EX11 DEL/T670I; format: cell-based; conditions: 72 hours
Protocol: as §1, §2

[1] = In vivo pharmacokinetic studies in rats; conditions: rat
Text: For example, the pharmacokinetics of Compound (1a) has been studied. […] After repeat dosing for 10 days, increased AUC (area under the curve) were obtained with Compound (1a) at either dose (see FIG. 1).

BAF3 KIT EX11 DEL = BAF3 KIT EX11 DEL (Homo sapiens, UniProt P10721, cells depend on it, form not given); experiment: Ba/F3 KIT mutant viability assay (Cell Titer-Glo), EX11 DEL; format: cell-based; conditions: 72 hours
Protocol: as §1, §2

BAF3 KIT EX11 DEL/D816H = BAF3 KIT EX11 DEL/D816H (Homo sapiens, UniProt P10721, D816H, cells depend on it, form not given); experiment: Ba/F3 KIT mutant viability assay (Cell Titer-Glo), EX11 DEL/D816H; format: cell-based; conditions: 72 hours
Protocol: as §1, §2

[2] = In vivo pharmacokinetic studies in non-human primates (monkeys); parameters: species or system monkey; conditions: male and female monkeys, oral
Protocol: Pharmacokinetic studies of Compound (1a) in non-human primates were also undertaken in male (FIG. 2A) and female (FIG. 2B) monkeys at two different doses (2 mg/kg and 4 mg/kg) via oral administration.

BAF3 KIT EX11 DEL/D816H, sequence (P10721 with tags, fused parts or gaps DEL557-558/D816H, form open): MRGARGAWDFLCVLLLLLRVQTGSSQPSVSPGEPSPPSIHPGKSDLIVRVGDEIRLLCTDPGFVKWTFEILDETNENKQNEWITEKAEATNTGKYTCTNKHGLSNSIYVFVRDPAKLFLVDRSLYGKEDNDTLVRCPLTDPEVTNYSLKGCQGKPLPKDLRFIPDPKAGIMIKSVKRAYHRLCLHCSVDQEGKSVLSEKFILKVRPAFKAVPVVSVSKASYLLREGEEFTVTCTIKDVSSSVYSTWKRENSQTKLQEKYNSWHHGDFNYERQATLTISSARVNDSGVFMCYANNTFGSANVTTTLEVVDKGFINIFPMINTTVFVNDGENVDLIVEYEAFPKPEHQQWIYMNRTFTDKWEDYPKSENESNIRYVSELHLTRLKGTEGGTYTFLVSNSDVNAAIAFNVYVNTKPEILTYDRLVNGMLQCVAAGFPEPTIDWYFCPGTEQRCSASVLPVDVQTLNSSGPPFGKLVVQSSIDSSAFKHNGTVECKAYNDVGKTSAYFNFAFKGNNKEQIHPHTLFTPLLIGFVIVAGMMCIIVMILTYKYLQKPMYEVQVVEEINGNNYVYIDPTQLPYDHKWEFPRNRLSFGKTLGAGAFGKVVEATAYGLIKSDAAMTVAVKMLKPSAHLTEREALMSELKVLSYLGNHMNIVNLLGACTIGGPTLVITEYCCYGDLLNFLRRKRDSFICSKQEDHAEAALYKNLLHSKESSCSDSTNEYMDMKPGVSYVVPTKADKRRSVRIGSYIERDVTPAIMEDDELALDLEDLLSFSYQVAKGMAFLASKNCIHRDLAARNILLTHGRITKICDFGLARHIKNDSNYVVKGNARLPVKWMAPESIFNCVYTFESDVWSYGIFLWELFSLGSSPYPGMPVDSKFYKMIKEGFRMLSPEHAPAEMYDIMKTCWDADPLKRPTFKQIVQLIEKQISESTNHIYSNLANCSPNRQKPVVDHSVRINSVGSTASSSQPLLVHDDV
BAF3 KIT EX11 DEL/T670I, sequence (P10721 with tags, fused parts or gaps DEL557-558/T670I, form open): as the sequence (P10721 with tags, fused parts or gaps DEL557-558/D816H, form open) above, with T668I, H814D counted along it
BAF3 KIT EX11 DEL, sequence (P10721 with tags, fused parts or gaps DEL557-558): as the sequence (P10721 with tags, fused parts or gaps DEL557-558/D816H, form open) above, with H814D counted along it
BAF3 KIT EX11 DEL/V654A, sequence (P10721 with tags, fused parts or gaps DEL557-558/V654A, form open): as the sequence (P10721 with tags, fused parts or gaps DEL557-558/D816H, form open) above, with V652A, H814D counted along it

AUC (area under the curve) after repeat dosing ([1]; oral, 10 mg/kg and 30 mg/kg (either dose), repeat dosing for 10 days, FIG. 1) | clearance (Cl) ([1]; single dose) | volume of distribution (Vd) ([1]; single dose) | curve shapes and AUC, Day 1 versus Day 10 ([2]; 2 mg/kg and 4 mg/kg (either dose), FIG. 2A/2B) | exposure after repeat dosing ([2]; 2 mg/kg and 4 mg/kg, Day 10 versus Day 1) | SMILES | GI50 (BAF3 KIT EX11 DEL/V654A) [nM] | GI50 (BAF3 KIT EX11 DEL/T670I) [nM] | average observed plasma concentration (Cav) versus target exposure ([1]; oral, 30 mg/kg (the latter dose)) | GI50 (BAF3 KIT EX11 DEL) [nM] | GI50 (BAF3 KIT EX11 DEL/D816H) [nM]
increased | high | high | similar | no significant loss of exposure | Cc1ccc(NC(=O)c2cc(C(F)(F)F)ccn2)cc1C#Cc1cnc(NC(=O)N2CC[C@H](N(C)C)C2)s1 [Compound 1a, N-[3-[2-[2-[[(3S)-3-(dimethylamino)pyrrolidine-1-carbonyl]amino]thiazol-5-yl]ethynyl]-4-methyl-phenyl]-4-(trifluoromethyl)pyridine-2-carboxamide] | 10 to 50 | 10 to 50 | exceeded target exposure required for achieving desired antitumor efficacy | < 10 | 10 to 50
 |  |  |  |  | Cc1ccc(NC(=O)c2cc(C(F)(F)F)ccn2)cc1C#Cc1cnc(NC(=O)N2CC[C@@H](N(C)C)C2)s1 [Compound 1b] | 10 to 50 | 10 to 50 |  | < 10 | 10 to 50
 |  |  |  |  | Cc1ccc(NC(=O)c2cc(C(F)(F)F)ccn2)cc1C#Cc1cnc(NC(=O)N2CC[C@@H](O)C2)s1 [Compound 2a] | < 10 | < 10 |  | < 10 | < 10
 |  |  |  |  | Cc1ccc(NC(=O)c2cc(C(F)(F)F)ccn2)cc1C#Cc1cnc(NC(=O)N2CC[C@H](O)C2)s1 [Compound 2b] | < 10 | < 10 |  | < 10 | < 10
 |  |  |  |  | Cc1ccc(NC(=O)c2cc(C(F)(F)F)ccn2)cc1C#Cc1cnc(NC(=O)N2CC(O)C2)s1 [Compound 3] | 10 to 50 | 10 to 50 |  | < 10 | 10 to 50
 |  |  |  |  | Cc1ccc(NC(=O)c2cc(C(F)(F)F)ccn2)cc1C#Cc1cnc(NC(=O)N2CC(C)(O)C2)s1 [Compound 4] | 10 to 50 | 10 to 50 |  | < 10 | 10 to 50
 |  |  |  |  | CN[C@H]1CCN(C(=O)Nc2ncc(C#Cc3cc(NC(=O)c4cc(C(F)(F)F)ccn4)ccc3C)s2)C1 [Compound 5a] | 10 to 50 | 50 to 100 |  | < 10 | 10 to 50
